The results in this text go back to paper PMC7792996, “Crystal structure of death-associated protein kinase 1 in complex with the dietary compound resveratrol” (IUCrJ, 2021).

Assay [1] has as its target T1, Death-associated protein kinase 1 (DAPK1) (Homo sapiens, UniProt P53355).
T1 construct: catalytic domain, residues 1–285
Kind of assay: malachite green intrinsic ATPase assay at […] ATP. The format is biochemical.

Assay [2] has as its target T1, Death-associated protein kinase 1 (DAPK1). Put plainly: fluorescent probe saturation binding (BC50), competed by RSV.

T1 sequence (P53355 1-285): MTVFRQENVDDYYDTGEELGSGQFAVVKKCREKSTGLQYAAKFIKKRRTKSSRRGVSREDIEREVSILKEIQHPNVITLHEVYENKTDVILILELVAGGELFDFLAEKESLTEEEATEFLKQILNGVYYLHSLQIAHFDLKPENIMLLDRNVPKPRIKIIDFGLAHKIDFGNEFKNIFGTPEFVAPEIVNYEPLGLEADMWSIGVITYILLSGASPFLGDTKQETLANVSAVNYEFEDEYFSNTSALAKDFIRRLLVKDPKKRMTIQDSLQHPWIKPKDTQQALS

Regarding `O=c1c(O)c(-c2ccc(O)cc2)oc2cc(O)cc(O)c12` [KAE, kaempferol], the “malachite green intrinsic ATPase assay at 30 μM ATP” value in assay [1] is recorded as “The inhibitory potency of KAE was higher than that of API”.

As usually defined, the Kd is the concentration at which binding is half-saturated. Read a low Kd as higher affinity. `O=S(=O)(O)c1cccc2cccc(Nc3ccccc3)c12` [ANS, 8-anilinonaphthalene-1-sulfonic acid] gave a dissociation constant Kd in assay [2] of 7.3 µM.
